Measured values reported in ChEMBL document CHEMBL3045370, “Design and synthesis of 6-alkyoxyl[1,2,4]triazolo[1,5-a]quinazoline derivatives with anticonvulsant activity” (Med Chem Res, 2012).
Activity calls are given as the source filed them. The calls are words filed in the database; no cut-off is given here.

Tests used:
Mus musculus [1] = assay: Anticonvulsant activity in Mus musculus Kunming (mouse) assessed as protection against maximal electroshock-induced seizure at 100 mg/kg, ip administered 30 min prior to testing; type: functional, organism-based; design: dose 100 mg/kg
[2] = Neurotoxicity against ip dosed Mus musculus Kunming (mouse) assessed as inability to maintain equilibrium on rod measured for 1 min by rota rod test; type: toxicity, organism-based; conditions: in vivo
Mus musculus [3] = assay: Anticonvulsant activity in ip dosed Mus musculus Kunming (mouse) assessed as protection against maximal electroshock-induced seizure administered 30 min prior to testing; type: functional
[4] = Protective index, ratio of TD50 for neurotoxicity to ED50 for anticonvulsant activity in Mus musculus Kunming (mouse); type: toxicity, organism-based; conditions: in vivo, read-out: Ratio TD50/ED50

Question: Which Activity (Mus musculus [1]) does the source give for Fc1ccccc1COc1cccc2c1cnc1ncnn12 here?
Answer: inactive

Question: Which results are given for NC(=O)N1c2ccccc2C=Cc2ccccc21 [CARBAMAZEPINE]?
Answer: TD50 at 1 min [2]: 76.1 mg/kg; ED50 (Mus musculus [3]): 11.8 mg/kg

Question: With Clc1ccc(COc2cccc3c2cnc2ncnn23)cc1 as the compound, how does the Activity (Mus musculus [1]) read?
Answer: inactive

Question: Which Activity (Mus musculus [1]) does the source give for CCCCCCCOc1cccc2c1cnc1ncnn12 here?
Answer: inactive

Question: Which selectivity ratio [4] does the source give for c1ccc(COc2cccc3c2cnc2ncnn23)cc1 here?
Answer: 9

Question: What about the TD50 at 1 min [2] of the same compound?
Answer: 710 mg/kg

Question: What about the ED50 (Mus musculus [3]) of the same compound?
Answer: 78.9 mg/kg

Question: What about the Activity (Mus musculus [1]) of the same compound?
Answer: Active

Question: Which Activity (Mus musculus [1]) does the source give for COc1ccc(COc2cccc3c2cnc2ncnn23)cc1 here?
Answer: inactive

Question: For Fc1ccc(COc2cccc3c2cnc2ncnn23)cc1, which Activity (Mus musculus [1]) is on record?
Answer: inactive

Question: With CCCCCCCCCCOc1cccc2c1cnc1ncnn12 as the compound, how does the Activity (Mus musculus [1]) read?
Answer: inactive

Question: For Clc1cccc(COc2cccc3c2cnc2ncnn23)c1, which Activity (Mus musculus [1]) is on record?
Answer: inactive

Question: With N#Cc1ccc(COc2cccc3c2cnc2ncnn23)cc1 as the compound, how does the Activity (Mus musculus [1]) read?
Answer: inactive

Question: Which Activity (Mus musculus [1]) does the source give for CCCCCCCCOc1cccc2c1cnc1ncnn12 here?
Answer: inactive

Question: With Fc1cccc(COc2cccc3c2cnc2ncnn23)c1 as the compound, how does the Activity (Mus musculus [1]) read?
Answer: inactive

Question: With CCCCCCOc1cccc2c1cnc1ncnn12 as the compound, how does the Activity (Mus musculus [1]) read?
Answer: inactive

Question: For Brc1ccccc1COc1cccc2c1cnc1ncnn12, which Activity (Mus musculus [1]) is on record?
Answer: inactive

Question: Which Activity (Mus musculus [1]) does the source give for Cc1ccc(COc2cccc3c2cnc2ncnn23)cc1 here?
Answer: inactive

Question: For N#Cc1ccccc1COc1cccc2c1cnc1ncnn12, which Activity (Mus musculus [1]) is on record?
Answer: inactive

Question: With Clc1ccc(COc2cccc3c2cnc2ncnn23)c(Cl)c1 as the compound, how does the Activity (Mus musculus [1]) read?
Answer: inactive

Question: Which Activity (Mus musculus [1]) does the source give for CCCCOc1cccc2c1cnc1ncnn12 here?
Answer: inactive

Question: Which Activity (Mus musculus [1]) does the source give for Clc1ccccc1COc1cccc2c1cnc1ncnn12 here?
Answer: inactive

Question: With CCCCCOc1cccc2c1cnc1ncnn12 as the compound, how does the Activity (Mus musculus [1]) read?
Answer: Active
